Measurements reported in patent publication US7642400B2, “Protein kinase C iota” (Mayo Foundation for Medical Education and Research, priority 2004, dated 2010).

Assays:
[1] = target: T1, interaction of PKCι polypeptides with PAR6 polypeptides (Homo sapiens, UniProt P41743); experiment: Primary screen: FRET assay of PKCι113-YFP-N1 (PYN) and PAR6125-CFP-C1; settings: FIG. 18; less binding as concentration increased
T1 construct: amino acids 1-113 or a full-length PKCι polypeptide; 6xHis; made in house
T1 sequence (P41743 10-122): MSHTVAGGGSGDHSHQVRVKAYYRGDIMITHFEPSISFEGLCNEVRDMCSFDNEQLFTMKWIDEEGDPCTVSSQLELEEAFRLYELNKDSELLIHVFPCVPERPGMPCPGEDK
Protocol: A primary screen was performed as follows to identify test compound having the potential to inhibit the interaction of PKCι polypeptides with PAR6 polypeptides. Bacterially expressed PKCι113-YFP-N1 (PYN) was isolated from the soluble fraction of bacterial lysates by affinity purification according to the manufacturer's protocol (B-PER 6×His Purification Kit; Pierce). The purified polypeptide was dialyzed against Tris buffer (50 mM Tris, pH 8.0; 135 mM NaCl; 10% glycerol; 0.002% EDTA) containing 2 M urea. PAR6125-CFP-C1 recombinant polypeptide was isolated from the inclusion body pellets of bacterial lysates using the B-PER reagent (Pierce) according to the manufacturer's protocol. […] Yields were measured by fluorescence in a SpectraMax Gemini microplate reader (Molecular Devices).
To perform the assay, PYN was diluted to 4000 relative fluorescent units/50 μl in Tris buffer plus 1 M urea, and PAR6125-CFP-C1 was diluted to 400 relative fluorescent units/50 μl Tris buffer plus 1 M urea. […] Fluorescence was measured in a SpectraMax Gemini plate reader. Cyan fluorescence was measured at excitation 395 nm, emission 475 nm, and cutoff of 455 nm. Yellow fluorescence was measured at excitation 395 nm, emission 529, and cutoff of 515=n. […]

[2] = target: T1, interaction of PKCι polypeptides with PAR6 polypeptides; experiment: Secondary screen: PYN bound to plate-immobilised biotin-tagged PAR6; type: binding; settings: for Secondary Screen: amount of PYN bound to biotin-tagged PAR6 plates
Protocol: Multiple test compounds that were classified as hits in the primary screen as well as additional related compounds were evaluated in a secondary screen designed as follows. Briefly, a 96-well microtiter plate coated with streptavidin (Nunc #436014) was incubated for 2-4 hours at room temperature with 100 μl of a 20-30 μg/ml solution of biotin-tagged PAR6 (whole polypeptide) in phosphate-buffered saline containing Tween-20 (PBST). Plates were washed twice with PBST, then once with incubation buffer (50 mM Tris, pH 8.0; 135 mM NaCl; 10% glycerol; 0.002% EDTA). Incubation buffer (50 μl) was added to each well. The compounds to be tested were added (10 μl) followed by PYN (50 μl) diluted in incubation buffer to an approximate concentration of 4000-5000 relative fluorescent units per 50 μl. Plates were incubated overnight at 4° C. Plates were washed twice with incubation buffer, after which 50 μl incubation buffer was added to retain moisture in the wells. The amount of PYN bound on the plates was determined by measuring yellow fluorescence (532/526) in a Typhoon imager. Fluorescence was quantitated by Softmax Pro software.
A dose-response analysis was performed using the secondary screening assay and increasing amounts (e.g., 0, 0.1, 1, 10, 100, and […]) of gossypol, hexestrol, thimerosal, ebselen, ATG, ATM, ellagic acid, cisplatin, apomorphine, or phenylmercuric acetate.

A549 cells = experiment: Soft agar growth assay (anchorage-independent growth) of A549 cells; type: cell-based, human; settings: A549 cells, FIG. 20
Protocol: (§1) Anchorage-independent growth was assayed by the ability of cells to form colonies in soft agar. The bottom agar consisted of growth medium containing 10% FBS and 0.75% agarose in 60-mm tissue culture dishes. Nine hundred cells were resuspended in growth medium containing 10% FBS and 0.75% agarose, and plated on top of the bottom agar. The cells were incubated at 37° C. in 5% CO2. Cell colonies were visualized and quantified under a dissecting microscope (Olympus) after 4-6 weeks in culture.
as §1, with “Soft Agar Growth Assays: Anchorage-independent growth” for “Anchorage-independent growth”, “and 0.75% agarose and plated” for “and 0.75% agarose, and plated”, “bottom agar. ATG was added at the indicated concentration to both bottom and top agar solutions. The cells” for “bottom agar. The cells”

[3] = system: A549 human lung carcinoma cells; experiment: Tumorigenicity in nude mice: A549 subcutaneous tumors; type: in vivo, mouse; settings: 200 mg/kg body weight intraperitoneal daily, versus saline; FIG. 21
Protocol: Tumorigenicity in Nude Mice: The growth of A549 human lung carcinoma cells as established subcutaneous tumors was studied in athymic nude mice (Harlan-Sprague-Dawley, Indianapolis, Ind.) in a defined pathogen-free environment. Briefly, A549 cells were grown in F-12K Nutrient Mixture containing 10% FBS. A549 cells were harvested and resuspended in serum-containing medium. 5×10^6 cells in 100 μl of growth medium were injected subcutaneously into the flank of 4-6 week old female nude mice. Once palpable tumors were established (15 days after inoculation) animals were randomly segregated into two groups. One group received intraperitoneal injections of ATG (200 mg/kg body weight) daily; the second group received an equivalent volume of diluent control solution. Tumor size was measured daily. Tumor growth was quantified by measuring the tumors in three dimensions with calipers. Tumor volume (mm^3) was calculated using the formula: 0.5236 (L×W×H), where L represents the length of the tumor, W represents the width of the tumor, and H represents the height of the tumor. Animals were individually monitored throughout the experiment.

SMILES: OC[C@H]1O[C@H]([S-])[C@H](O)[C@@H](O)[C@@H]1O.[Au+] [Aurothioglucose]
- dose-response in the FRET assay: relative binding of PKCι and PAR6 polypeptides [1]: dose-dependent effect
- Secondary Screen [2]: Confirmed
- Secondary Screen ([2]; listed as aurothioglucose): confirmed
- dose-response analysis using the secondary screening assay ([2]; increasing amounts, e.g. 0, 0.1, 1, 10, 100, and 100 μM): dose-dependent response was detected
- soft agar growth (A549 cells; 10 μM): decreased soft agar growth
- soft agar growth (A549 cells; 100 μM): decreased soft agar growth
- tumor growth (tumor volume) [3]: less tumor growth
